Assays:
[1] = 100 kPa, Liquid; for viscosity: Concentric cylinders viscometry; for mass density: Vibrating tube method
[2] = xn = mol fraction of the nth substance listed; details: 100 kPa, Liquid, x1 = 1; for viscosity: Concentric cylinders viscometry; for mass density: Vibrating tube method

CCCCn1cc[n+](C)c1.[Cl-] [1-butyl-3-methylimidazolium chloride]
[1]
Details | mass density [kg/m3] | viscosity [mPa·s]
348.15 K | 1053.9 | 217
353.15 K | 1051.2 | 162.1
358.15 K | 1048.5 | 123.3
363.15 K | 1045.9 | 95.6
368.15 K | 1043.3 | 75.39
373.15 K | 1040.8 | 60.26

CCCCn1cc[n+](C)c1.[Cl-] [1-butyl-3-methylimidazolium chloride] + CCCC[n+]1ccn(C)c1.O=S(=O)([N-]S(=O)(=O)C(F)(F)F)C(F)(F)F
[2]
Details | mass density [kg/m3] | viscosity [mPa·s]
348.15 K | 1053.9 | 217
353.15 K | 1051.2 | 162.1
358.15 K | 1048.5 | 123.3
363.15 K | 1045.9 | 95.6
368.15 K | 1043.3 | 75.39
373.15 K | 1040.8 | 60.26
